{"source": "patent US20160220569A1", "about": "“CDK4/6 Inhibitor Dosage Formulations For The Protection Of Hematopoietic Stem And Progenitor Cells During Chemotherapy” (G1 Therapeutics, Inc., priority 2015, published 2016)", "assay": "14-day oral gavage toxicokinetic study in rats", "assay_type": "in vivo", "details": "rat, plasma, po; for concentration at 0.5 h / concentration at 1 h / concentration at 2 h / concentration at 4 h / concentration at 8 h / concentration at 12 h / concentration at 24 h / concentration at […]: rats; for half-life: read-out: t½ (converted)", "method": "Plasma was obtained from blood samples collected from rats in a composite sampling scheme, with 3 samples collected per sex, per dose, at each target collection time, as illustrated in Table 21 to Table 25. Samples were collected from the vehicle control group on Day 1 and Day 14 at 3 hour after administration. […] Blood samples were collected in tubes containing K3EDTA as an anticoagulant and placed on ice until processed to plasma via centrifugation. Samples were stored frozen at −80° C. until shipment to the bioanalytical laboratory for analysis.\nThe following parameters were determined:\nCmax: Maximum observed plasma concentration (ng/mL).\nA value of 0 ng/mL was assigned to all values below the lower limit of quantitation (BLQ, <10.0 ng/mL).\nAUC(0-inf): Area under the plasma concentration vs. time curve extrapolated from 0 to infinity (ng*h/mL), calculated as AUC(0-t)+AUC(t-inf) where AUC(t-inf) is calculated as last measurable concentration (CLast) divided by ke, where ke is the elimination rate constant determined by linear regression of the last three analytically measured points on the log plasma concentration vs. time curve. The selection criteria of the data points for inclusion in the calculation of ke required that at least three data points representing the terminal phase (after Tmax) were regressed and that R2≧0.850 when rounded.\nCL: Clearance (L/h/kg), calculated as the dose divided by AUC(0-t).\nVd: Volume of distribution (L/kg), calculated as dose divided by the product of ke and AUC(0-inf).\nVdss: Steady state volume of distribution (L/kg), calculated as clearance […] mean residence time, where mean residence time is calculated as the area under the first moment curve divided by AUC(0-t).\nt½: Elimination half-life (h), calculated as ln(2)/ke, where ke is the elimination rate constant determined by linear regression. Half-life was defined as not determined if regression criteria (specified in AUC(0-inf) above) were not met.\nCmax/Dose: Normalized Cmax, calculated as Cmax divided by total dose.\nAUC/Dose: Normalized AUC, calculated as AUC(0-t) divided by total dose.\nii. Statistical Analysis Mean and standard deviation (SD) were calculated in Watson. Values of BLQ were assigned a value of 0 ng/mL for mean calculations. Concentration values and derived TK parameters were reported to three significant figures.", "key": {"[1]": {"details": "female, 30 mg/kg, oral 30 mg/kg, Study Day 1, Female"}, "[2]": {"details": "female, 30 mg/kg, oral 30 mg/kg, Study Day 14, Female"}, "[3]": {"details": "male, 2 mg/kg, oral 2 mg/kg, Study Day 1, Male"}, "[4]": {"details": "male, 2 mg/kg, oral 2 mg/kg, Study Day 14, Male"}}, "note": "Where two headings read alike, the source gives them in different places.", "data": [{"smiles": "CN1CCN(c2ccc(Nc3ncc4cc5n(c4n3)C3(CCCCC3)CNC5=O)nc2)CC1", "note": "[Compound 1, 2′-((5-(4-methylpiperazin-1-yl)pyridin-2-yl)amino)-7′,8′-dihydro-6′H-spiro[cyclohexane-1,9′-pyrazino[1′,2′:1,5]pyrrolo[2,3-d]pyrimidin]-6′-one]", "values": [{"measurement": "concentration at 0.5 h", "setting": "female, 30 mg/kg, Mean Compound 1 Plasma Concentration, oral 30 mg/kg, Day 1, 0.5 h, Female", "value": 2160, "unit": "ng/mL"}, {"measurement": "concentration at 1 h", "setting": "female, 30 mg/kg, Mean Compound 1 Plasma Concentration, oral 30 mg/kg, Day 1, 1 h, Female", "value": 2140, "unit": "ng/mL"}, {"measurement": "concentration at 2 h", "setting": "female, 30 mg/kg, Mean Compound 1 Plasma Concentration, oral 30 mg/kg, Day 1, 2 h, Female", "value": 3090, "unit": "ng/mL"}, {"measurement": "concentration at 4 h", "setting": "female, 30 mg/kg, Mean Compound 1 Plasma Concentration, oral 30 mg/kg, Day 1, 4 h, Female", "value": 2510, "unit": "ng/mL"}, {"measurement": "concentration at 8 h", "setting": "female, 30 mg/kg, Mean Compound 1 Plasma Concentration, oral 30 mg/kg, Day 1, 8 h, Female", "value": 2470, "unit": "ng/mL"}, {"measurement": "concentration at 12 h", "setting": "female, 30 mg/kg, Mean Compound 1 Plasma Concentration, oral 30 mg/kg, Day 1, 12 h, Female", "value": 1940, "unit": "ng/mL"}, {"measurement": "concentration at 24 h", "setting": "female, 30 mg/kg, Mean Compound 1 Plasma Concentration, oral 30 mg/kg, Day 1, 24 h, Female", "value": 284, "unit": "ng/mL"}, {"measurement": "concentration at […]", "setting": "female, 30 mg/kg, Mean Compound 1 Plasma Concentration, oral 30 mg/kg, Day 1, […], Female", "value": 92.9, "unit": "ng/mL"}, {"measurement": "concentration at 0.5 h", "setting": "female, 30 mg/kg, Mean Compound 1 Plasma Concentration, oral 30 mg/kg, Day 14, 0.5 h, Female", "value": 1540, "unit": "ng/mL"}, {"measurement": "concentration at 1 h", "setting": "female, 30 mg/kg, Mean Compound 1 Plasma Concentration, oral 30 mg/kg, Day 14, 1 h, Female", "value": 2230, "unit": "ng/mL"}, {"measurement": "concentration at 2 h", "setting": "female, 30 mg/kg, Mean Compound 1 Plasma Concentration, oral 30 mg/kg, Day 14, 2 h, Female", "value": 2010, "unit": "ng/mL"}, {"measurement": "concentration at 4 h", "setting": "female, 30 mg/kg, Mean Compound 1 Plasma Concentration, oral 30 mg/kg, Day 14, 4 h, Female", "value": 2320, "unit": "ng/mL"}, {"measurement": "concentration at 8 h", "setting": "female, 30 mg/kg, Mean Compound 1 Plasma Concentration, oral 30 mg/kg, Day 14, 8 h, Female", "value": 1960, "unit": "ng/mL"}, {"measurement": "concentration at 12 h", "setting": "female, 30 mg/kg, Mean Compound 1 Plasma Concentration, oral 30 mg/kg, Day 14, 12 h, Female", "value": 2290, "unit": "ng/mL"}, {"measurement": "concentration at 24 h", "setting": "female, 30 mg/kg, Mean Compound 1 Plasma Concentration, oral 30 mg/kg, Day 14, 24 h, Female", "value": 322, "unit": "ng/mL"}, {"measurement": "concentration at […]", "setting": "female, 30 mg/kg, Mean Compound 1 Plasma Concentration, oral 30 mg/kg, Day 14, […], Female", "value": 537, "unit": "ng/mL"}, {"measurement": "AUC(0-inf)", "setting": "[1]", "value": 43800, "unit": "ng·h/mL"}, {"measurement": "AUC(0-t)", "setting": "[1]", "value": 41800, "unit": "ng·h/mL"}, {"measurement": "Cmax", "setting": "[1]", "value": 3090, "unit": "ng/mL"}, {"measurement": "Tmax", "setting": "[1]", "value": 2, "unit": "h"}, {"measurement": "half-life", "setting": "[1]", "value": 4.92, "unit": "h"}, {"measurement": "AUC(0-inf)", "setting": "[2]", "value": 43200, "unit": "ng·h/mL"}, {"measurement": "AUC(0-t)", "setting": "[2]", "value": 40600, "unit": "ng·h/mL"}, {"measurement": "Cmax", "setting": "[2]", "value": 2320, "unit": "ng/mL"}, {"measurement": "Tmax", "setting": "[2]", "value": 4, "unit": "h"}, {"measurement": "half-life", "setting": "[2]", "value": 5.56, "unit": "h"}, {"measurement": "concentration at 1 h", "setting": "male, 2 mg/kg, Compound 1 Plasma Concentration, Male, Day 1, 1 h, daily oral 2 mg/kg (Group 7), individual animals", "value": 59.1, "unit": "ng/mL"}, {"measurement": "concentration at 2 h", "setting": "male, 2 mg/kg, Compound 1 Plasma Concentration, Male, Day 1, 2 h, daily oral 2 mg/kg (Group 7), individual animals", "value": 97.4, "unit": "ng/mL"}, {"measurement": "concentration at 4 h", "setting": "male, 2 mg/kg, Compound 1 Plasma Concentration, Male, Day 1, 4 h, daily oral 2 mg/kg (Group 7), individual animals", "value": 122, "unit": "ng/mL"}, {"measurement": "concentration at 8 h", "setting": "male, 2 mg/kg, Compound 1 Plasma Concentration, Male, Day 1, 8 h, daily oral 2 mg/kg (Group 7), individual animals", "value": 99, "unit": "ng/mL"}, {"measurement": "concentration at 12 h", "setting": "male, 2 mg/kg, Compound 1 Plasma Concentration, Male, Day 1, 12 h, daily oral 2 mg/kg (Group 7), individual animals", "value": 51.9, "unit": "ng/mL"}, {"measurement": "concentration at 0.5 h", "setting": "male, 2 mg/kg, Compound 1 Plasma Concentration, Male, Day 14, 0.5 h, daily oral 2 mg/kg (Group 7), individual animals", "value": 36.3, "unit": "ng/mL"}, {"measurement": "concentration at 2 h", "setting": "male, 2 mg/kg, Compound 1 Plasma Concentration, Male, Day 14, 2 h, daily oral 2 mg/kg (Group 7), individual animals", "value": 84.3, "unit": "ng/mL"}, {"measurement": "concentration at 4 h", "setting": "male, 2 mg/kg, Compound 1 Plasma Concentration, Male, Day 14, 4 h, daily oral 2 mg/kg (Group 7), individual animals", "value": 117, "unit": "ng/mL"}, {"measurement": "concentration at 8 h", "setting": "male, 2 mg/kg, Compound 1 Plasma Concentration, Male, Day 14, 8 h, daily oral 2 mg/kg (Group 7), individual animals", "value": 68.7, "unit": "ng/mL"}, {"measurement": "concentration at 12 h", "setting": "male, 2 mg/kg, Compound 1 Plasma Concentration, Male, Day 14, 12 h, daily oral 2 mg/kg (Group 7), individual animals", "value": 65.7, "unit": "ng/mL"}, {"measurement": "concentration at 0.5 h", "setting": "male, 2 mg/kg, Mean Compound 1 Plasma Concentration, oral 2 mg/kg, Day 1, 0.5 h, Male", "value": 57.7, "unit": "ng/mL"}, {"measurement": "concentration at 1 h", "setting": "male, 2 mg/kg, Mean Compound 1 Plasma Concentration, oral 2 mg/kg, Day 1, 1 h, Male", "value": 57.1, "unit": "ng/mL"}, {"measurement": "concentration at 2 h", "setting": "male, 2 mg/kg, Mean Compound 1 Plasma Concentration, oral 2 mg/kg, Day 1, 2 h, Male", "value": 102, "unit": "ng/mL"}, {"measurement": "concentration at 8 h", "setting": "male, 2 mg/kg, Mean Compound 1 Plasma Concentration, oral 2 mg/kg, Day 1, 8 h, Male", "value": 90.4, "unit": "ng/mL"}, {"measurement": "concentration at 12 h", "setting": "male, 2 mg/kg, Mean Compound 1 Plasma Concentration, oral 2 mg/kg, Day 1, 12 h, Male", "value": 53.7, "unit": "ng/mL"}, {"measurement": "concentration at 0.5 h", "setting": "male, 2 mg/kg, Mean Compound 1 Plasma Concentration, oral 2 mg/kg, Day 14, 0.5 h, Male", "value": 47, "unit": "ng/mL"}, {"measurement": "concentration at 1 h", "setting": "male, 2 mg/kg, Mean Compound 1 Plasma Concentration, oral 2 mg/kg, Day 14, 1 h, Male", "value": 57.1, "unit": "ng/mL"}, {"measurement": "concentration at 2 h", "setting": "male, 2 mg/kg, Mean Compound 1 Plasma Concentration, oral 2 mg/kg, Day 14, 2 h, Male", "value": 94.9, "unit": "ng/mL"}, {"measurement": "concentration at 4 h", "setting": "male, 2 mg/kg, Mean Compound 1 Plasma Concentration, oral 2 mg/kg, Day 14, 4 h, Male", "value": 116, "unit": "ng/mL"}, {"measurement": "concentration at 8 h", "setting": "male, 2 mg/kg, Mean Compound 1 Plasma Concentration, oral 2 mg/kg, Day 14, 8 h, Male", "value": 94.2, "unit": "ng/mL"}, {"measurement": "concentration at 12 h", "setting": "male, 2 mg/kg, Mean Compound 1 Plasma Concentration, oral 2 mg/kg, Day 14, 12 h, Male", "value": 54, "unit": "ng/mL"}, {"measurement": "AUC(0-t)", "setting": "[3]", "value": 1390, "unit": "ng·h/mL"}, {"measurement": "Cmax", "setting": "[3]", "value": 126, "unit": "ng/mL"}, {"measurement": "Tmax", "setting": "[3]", "value": 4, "unit": "h"}, {"measurement": "half-life", "setting": "[3]", "value": 5.32, "unit": "h"}, {"measurement": "AUC(0-t)", "setting": "[4]", "value": 1360, "unit": "ng·h/mL"}, {"measurement": "Cmax", "setting": "[4]", "value": 116, "unit": "ng/mL"}, {"measurement": "Tmax", "setting": "[4]", "value": 4, "unit": "h"}, {"measurement": "half-life", "setting": "[4]", "value": 4.98, "unit": "h"}]}]}
